From patent US20230027075A1, “SULFONAMIDE COMPOUNDS TARGETING CD73 AND ADENOSINE RECEPTORS” (Aurigene Discovery Technologies Limited, priority 2019, published 2023) come the findings set out here.

Test [1] deals with T1, human-CD73 (Trp27-Lys547, His-tag) (Homo sapiens, UniProt P21589).
T1 construct: human-CD73 (Trp27-Lys547, His-tag); His-tag
T1 sequence (P21589 27-547): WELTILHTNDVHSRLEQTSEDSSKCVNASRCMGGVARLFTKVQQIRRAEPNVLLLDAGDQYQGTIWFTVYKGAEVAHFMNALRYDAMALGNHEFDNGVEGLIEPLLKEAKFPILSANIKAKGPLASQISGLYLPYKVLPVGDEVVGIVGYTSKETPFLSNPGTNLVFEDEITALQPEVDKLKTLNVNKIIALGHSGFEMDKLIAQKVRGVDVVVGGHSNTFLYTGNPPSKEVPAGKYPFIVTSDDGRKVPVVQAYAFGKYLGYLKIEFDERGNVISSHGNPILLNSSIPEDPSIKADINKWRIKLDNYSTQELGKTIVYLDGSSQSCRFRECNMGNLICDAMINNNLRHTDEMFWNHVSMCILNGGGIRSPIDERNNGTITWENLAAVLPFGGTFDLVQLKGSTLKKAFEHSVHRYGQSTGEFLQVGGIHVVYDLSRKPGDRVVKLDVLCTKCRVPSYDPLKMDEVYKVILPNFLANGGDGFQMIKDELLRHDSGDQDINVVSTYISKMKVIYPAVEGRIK
The test can be described thus: CD73 biochemical assay (colorimetric, Malachite Green phosphate detection). The note with it: 2 nM CD73, 50 μM AMP; for inhibition at 20 µM: 20 μM compound, read-out: % inhibition at 20 μM (Percent inhibition data in CD73); for IC50: four-parameter curve fit, read-out: Potency (IC50 values) of selected compounds in CD73, group. As to the method:
A colorimetric-based method was used for assaying compounds of the invention for CD73 enzyme inhibitory activity. Human CD73 catalyzes the conversion of AMP to adenosine with the release of orthophosphate. A Malachite Green Phosphate Detection kit is used to measure the formation of orthophosphate product. […] A compound of the present invention and enzyme are incubated for 30 minutes at room temperature. Next, 20 μL of AMP in assay buffer is added to the plate. The final concentration of CD73 and AMP are 2 nM and 50 μM respectively. Following 30 minutes reaction at room temperature, 20 μL of Malachite reagent is added to all the reaction wells. The formation of green complex formed between Malachite Green, molybdate and free orthophosphate is measured on a plate reader (620 nm).

A further test addresses T2, A2aR (Homo sapiens, UniProt P29274).
T2 construct: expressed in transfected cells
Nature of the test: A2aR biochemical assay (TR-FRET binding, Tag-lite A2aR labelled cells, fluorescent antagonist). The following applies: 10 nM fluorescent A2aR antagonist; for inhibition at 20 µM: read-out: % inhibition at 20 μM (Percent inhibition data in A2aR); for IC50: four-parameter curve fit, read-out: Potency (IC50 values) of selected compounds in A2aR, group. As to the method:
The compounds of present invention were assayed for A2aR enzyme binding activity in a TR-FRET based method. Typically, 10 μL of A2aR labelled cells in assay buffer (Tag-lite, 1×) is added to a 384-well plate containing 5 μL of a compound of present invention in final 1% DMSO, serially diluted in 1:5 in a 5-6 point titration. The aforesaid compound and cells are incubated for 30 minutes at room temperature. Next, 5 μL of A2aR antagonist (fluorescent ligand) in assay buffer is added to the plate. The final concentration of A2aR antagonist is 10 nM. Following 30 minutes reaction at room temperature, the plate was read on a plate reader (Ex: 340 nm Em: 615 nm and 665 nm) to measure the binding of test compound to A2aR cells. The results are interpreted as percentage inhibition as presented in Table-2A of binding by the test compound with respect to the DMSO control.
For orientation: In TR-FRET formats the signal depends on donor and acceptor labels being close together.

Setting [2] is: 20 μM compound, vs DMSO control.

Bounds are passed on as bounds.

T2 sequence (P29274 whole entry): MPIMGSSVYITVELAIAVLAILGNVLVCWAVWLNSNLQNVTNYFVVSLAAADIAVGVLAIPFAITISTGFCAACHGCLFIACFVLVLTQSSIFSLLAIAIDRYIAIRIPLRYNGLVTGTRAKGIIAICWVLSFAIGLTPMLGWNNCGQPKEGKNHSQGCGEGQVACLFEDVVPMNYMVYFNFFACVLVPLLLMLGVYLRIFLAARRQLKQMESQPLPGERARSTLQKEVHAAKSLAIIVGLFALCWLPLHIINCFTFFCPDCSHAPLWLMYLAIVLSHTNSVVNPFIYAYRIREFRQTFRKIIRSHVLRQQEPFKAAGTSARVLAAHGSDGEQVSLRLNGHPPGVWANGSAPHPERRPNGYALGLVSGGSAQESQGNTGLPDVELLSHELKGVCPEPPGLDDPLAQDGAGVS

For `NC(=O)c1cc(S(=O)(=O)Nc2cccc(CNc3nc(N)n4nc(-c5ccco5)nc4n3)c2)cc(Cl)c1O` [Example A1, 5-(N-(3-(((7-amino-2-(furan-2-yl)-[1,2,4]triazolo[1,5-a][1,3,5]triazin-5-yl)amino)methyl)phenyl)sulfamoyl)-3-chloro-2-hydroxybenzamide], the inhibition – broadly, the relative decrease from the control value, in per cent – at 20 µM in test [1] was found to be 91%; on A2aR (setting [2]), 78%. Further, the figures for the IC50 (in test [1]; at A2aR) were over 1000 nM and under 25 nM, respectively.
`NC(=O)c1cc(S(=O)(=O)Nc2ccc(CCCNc3nc(N)n4nc(-c5ccco5)nc4n3)cc2)cc(Cl)c1O` [Example A11, 5-(N-(4-(3-((7-amino-2-(furan-2-yl)-[1,2,4]triazolo[1,5-a][1,3,5]triazin-5-yl)amino)propyl)phenyl)sulfamoyl)-3-chloro-2-hydroxybenzamide]: in test [1], the inhibition at 20 µM was 98%. The IC50 (as a rule, the concentration that inhibits the measured activity by half) in test [1] is under 100 nM; on A2aR, under 25 nM. In addition, the % inhibition – broadly, the change of the read-out against control, counted positive when it falls – at 20 μM (Percent inhibition data in A2aR) at A2aR (setting [2]) came out at 88%.
Consider `NC(=O)c1cc(S(=O)(=O)Nc2ccc(CCCNc3cc4nc(-c5ccco5)nn4c(N)n3)cc2)cc(Cl)c1O` [Example A19, 5-(N-(4-(3-((5-amino-2-(furan-2-yl)-[1,2,4]triazolo[1,5-c]pyrimidin-7-yl)amino)propyl)phenyl)sulfamoyl)-3-chloro-2-hydroxybenzamide], for which, in test [1], the inhibition at 20 µM was determined as 96% and the IC50 is over 1000 nM. The inhibition at 20 µM at A2aR (setting [2]) worked out at 83%.
For `NC(=O)c1cc(S(=O)(=O)Nc2ccc(CCNc3nc(N)n4nc(-c5ccco5)nc4n3)c(F)c2)cc(Cl)c1O` [Example A6, 5-(N-(4-(2-((7-amino-2-(furan-2-yl)-[1,2,4]triazolo[1,5-a][1,3,5]triazin-5-yl)amino)ethyl)-3-fluorophenyl)sulfamoyl)-3-chloro-2-hydroxybenzamide] the same measures were 98%, 110 to 1000 nM and 79%.
Taken in the same sequence, the figures for `NC(=O)c1cc(S(=O)(=O)Nc2ccc(CCCNc3nc(N)n4nc(-c5ccco5)nc4n3)cc2F)cc(Cl)c1O` [Example A15, 5-(N-(4-(3-((7-amino-2-(furan-2-yl)-[1,2,4]triazolo[1,5-a][1,3,5]triazin-5-yl)amino)propyl)-2-fluorophenyl)sulfamoyl)-3-chloro-2-hydroxybenzamide] were 96%, 110 to 1000 nM and 83%.
In the case of `Nc1nc(NCCc2ccc(NS(=O)(=O)c3cc(Cl)c4c(c3)CC(=O)N4)cc2)nc2nc(-c3ccco3)nn12` [Example B1, N-(4-(2-((7-amino-2-(furan-2-yl)-[1,2,4]triazolo[1,5-a][1,3,5]triazin-5-yl)amino)ethyl)phenyl)-7-chloro-2-oxoindoline-5-sulfonamide], the inhibition at 20 µM in test [1] came to 35%; on A2aR (setting [2]), 80%.
For `CC(C)COC(=O)Nc1nc(NCCc2ccc(NS(=O)(=O)c3cc(Cl)c(O)c(C(N)=O)c3)cc2)nc2nc(-c3ccco3)nn12` [Example A9, Isobutyl (5-((4-((3-carbamoyl-5-chloro-4-hydroxyphenyl)sulfonamido)phenethyl)amino)-2-(furan-2-yl)-[1,2,4]triazolo[1,5-a][1,3,5]triazin-7-yl)carbamate] the same measures were 39% and 82%.
Take `NC(=O)c1cc(S(=O)(=O)Nc2ccc(CCNc3nc(N)n4nc(-c5ccco5)nc4n3)nc2)cc(Cl)c1O` [Example E1, 5-(N-(6-(2-((7-amino-2-(furan-2-yl)-[1,2,4]triazolo[1,5-a][1,3,5]triazin-5-yl)amino)ethyl)pyridin-3-yl)sulfamoyl)-3-chloro-2-hydroxybenzamide]: the inhibition at 20 µM in test [1] was found to be 86%; on A2aR (setting [2]), 83%. Moreover, the IC50 in test [1] was over 1000 nM.
For `NC(=O)c1cc(S(=O)(=O)Nc2ccc(CCCNc3cc(N)n4nc(-c5ccco5)cc4n3)cc2)cc(Cl)c1O` [Example A24], the inhibition at 20 µM in test [1] amounted to 92%; at A2aR (setting [2]), 79%. For the same molecule, the concentration for half-maximal inhibition (IC50) in test [1] is under 100 nM; on A2aR, over 50 nM.
Turning to `Nc1nc(NCCCc2ccc(NS(=O)(=O)c3cc(Cl)c4oc(=O)[nH]c(=O)c4c3)cc2)nc2nc(-c3ccco3)nn12` [Example B4, N-(4-(3-((7-amino-2-(furan-2-yl)-[1,2,4]triazolo[1,5-a][1,3,5]triazin-5-yl)amino)propyl)phenyl)-8-chloro-2,4-dioxo-3,4-dihydro-2H-benzo[e][1,3]oxazine-6-sulfonamide], the inhibition at 20 µM in test [1] is 99%; at A2aR (setting [2]) it was 86%.
For `Nc1nc(NCCc2ccc(NS(=O)(=O)c3cc(F)c(O)c(Cl)c3)cc2)nc2nc(-c3ccco3)nn12` [Example A4, N-(4-(2-((7-amino-2-(furan-2-yl)-[1,2,4]triazolo[1,5-a][1,3,5]triazin-5-yl)amino)ethyl)phenyl)-3-chloro-5-fluoro-4-hydroxybenzenesulfonamide] the same measures were 27% and 81%.
Regarding `NC(=O)c1cc(S(=O)(=O)Nc2ccc(CCCNc3cc(N)n4nc(-c5ccco5)nc4n3)cc2)cc(Cl)c1O` [Example A20, 5-(N-(4-(3-((7-amino-2-(furan-2-yl)-[1,2,4]triazolo[1,5-a]pyrimidin-5-yl)amino)propyl)phenyl)sulfamoyl)-3-chloro-2-hydroxybenzamide], the inhibition at 20 µM in test [1] is 92%; at A2aR (setting [2]), 80%. Further, the values for the IC50 (in test [1]; at A2aR) were under 100 nM and 25.1 to 50 nM, respectively.
For `NC(=O)c1cc(S(=O)(=O)Nc2ccc(CCNc3nc(N)n4nc(-c5ccco5)nc4n3)c(O)c2)cc(Cl)c1O` [Example A5, 5-(N-(4-(2-((7-amino-2-(furan-2-yl)-[1,2,4]triazolo[1,5-a][1,3,5]triazin-5-yl)amino)ethyl)-3-hydroxyphenyl)sulfamoyl)-3-chloro-2-hydroxybenzamide] the same measures were 99%, 84%, 110 to 1000 nM and under 25 nM.
In the case of `NC(=O)c1cc(S(=O)(=O)Nc2ccc(CCNc3nc(N)n4nc(-c5ccco5)nc4n3)cc2F)cc(Cl)c1O` [Example A7, 5-(N-(4-(3-((7-amino-2-(furan-2-yl)-[1,2,4]triazolo[1,5-a][1,3,5]triazin-5-yl)amino)ethyl)-2-fluorophenyl)sulfamoyl)-3-chloro-2-hydroxybenzamide], the inhibition at 20 µM in test [1] was 42%; at A2aR (setting [2]), 84%.
In the case of `COC(=O)[C@@H](NC(=O)Oc1c(Cl)cc(S(=O)(=O)Nc2ccc(CCCNc3nc(N)n4nc(-c5ccco5)nc4n3)cc2)cc1C(N)=O)C(C)C` [Example A25, Methyl ((4-(N-(4-(3-((7-amino-2-(furan-2-yl)-[1,2,4]triazolo[1,5-a][1,3,5]triazin-5-yl)amino)propyl)phenyl)sulfamoyl)-2-carbamoyl-6-chlorophenoxy)carbonyl)valinate], the inhibition at 20 µM is 99% in test [1] and 81% on A2aR (setting [2]). Moreover, the IC50 in test [1] is under 100 nM.
Regarding `NC(=O)c1cc(S(=O)(=O)Nc2ccc(CCNc3nc(N)n4nc(-c5ccco5)nc4n3)cc2)cc(Cl)c1O` [Example A3, 5-(N-(4-(2-((7-amino-2-(furan-2-yl)-[1,2,4]triazolo[1,5-a][1,3,5]triazin-5-yl)amino)ethyl)phenyl)sulfamoyl)-3-chloro-2-hydroxybenzamide], the inhibition at 20 µM turned out to be 96% in test [1] and 83% at A2aR (setting [2]). Also, the IC50 was 110 to 1000 nM in test [1] and under 25 nM on A2aR.
